# Results taken from patent publication US8492401B2, “Thiazolopyridine sirtuin modulating compounds” (Sirtris Pharmaceuticals, priority 2008, dated 2013).
# Target: T1, SIRT1 (Homo sapiens, UniProt Q96EB6)
# T1 sequence (Q96EB6 1-747): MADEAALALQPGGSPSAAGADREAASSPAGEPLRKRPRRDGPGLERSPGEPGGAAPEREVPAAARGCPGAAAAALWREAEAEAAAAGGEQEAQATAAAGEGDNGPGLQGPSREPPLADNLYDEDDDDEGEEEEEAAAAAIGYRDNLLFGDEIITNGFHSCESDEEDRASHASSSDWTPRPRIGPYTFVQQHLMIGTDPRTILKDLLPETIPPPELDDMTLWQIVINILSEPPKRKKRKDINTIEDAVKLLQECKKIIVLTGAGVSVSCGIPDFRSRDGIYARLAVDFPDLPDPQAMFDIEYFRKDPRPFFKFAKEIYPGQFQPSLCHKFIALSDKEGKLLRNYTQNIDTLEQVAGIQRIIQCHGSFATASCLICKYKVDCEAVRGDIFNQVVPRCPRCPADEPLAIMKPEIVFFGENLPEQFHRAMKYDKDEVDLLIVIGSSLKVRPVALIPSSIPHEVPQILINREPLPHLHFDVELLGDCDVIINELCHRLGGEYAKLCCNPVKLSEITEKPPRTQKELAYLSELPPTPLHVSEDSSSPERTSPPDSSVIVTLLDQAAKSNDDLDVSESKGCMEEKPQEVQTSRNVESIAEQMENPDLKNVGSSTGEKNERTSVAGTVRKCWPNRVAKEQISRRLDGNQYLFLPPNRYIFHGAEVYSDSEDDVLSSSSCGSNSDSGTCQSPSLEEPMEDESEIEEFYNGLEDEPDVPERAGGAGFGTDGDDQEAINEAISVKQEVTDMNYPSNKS
# Assay: Mass spectrometry based assay to identify modulators (activators) of SIRT1 activity
# Format: biochemical
# Details: 0.5 μM peptide substrate, 120 μM βNAD+, 10 nM SIRT1, 25 minutes at 25° C.; for EC1.5: SIRT1 activation
# Excerpt: A mass spectrometry based assay was used to identify modulators of SIRT1 activity. The mass spectrometry based assay utilizes a peptide having 20 amino acid residues as follows: Ac-EE-K(biotin)-GQSTSSHSK(Ac)NleSTEG-K(5TMR)-EE-NH2 (SEQ ID NO: 1) wherein K(Ac) is an acetylated lysine residue and Nle is a norleucine. The peptide is labeled with the fluorophore 5TMR (excitation 540 nm/emission 580 nm) at the C-terminus. The sequence of the peptide substrate is based on p53 with several modifications. In addition, the methionine residue naturally present in the sequence was replaced with the norleucine because the methionine may be susceptible to oxidation during synthesis and purification.
# The mass spectrometry assay is conducted as follows: 0.5 μM peptide substrate and 120 μM βNAD^+ is incubated with 10 nM SIRT1 for 25 minutes at 25° C. in a reaction buffer (50 mM Tris-acetate pH 8, 137 mM NaCl, 2.7 mM KCl, 1 mM MgCl2, 5 mM DTT, 0.05% BSA). Test compounds may be added to the reaction as described above. […] After the 25 minute incubation with SIRT1, 10 μL of 10% formic acid is added to stop the reaction. Reactions are sealed and frozen for later mass spec analysis. Determination of the mass of the substrate peptide allows for precise determination of the degree of acetylation (i.e. starting material) as compared to deacetylated peptide (product).
# A control for inhibition of sirtuin activity is conducted by adding 1 μL of 500 mM nicotinamide as a negative control at the start of the reaction (e.g., permits determination of maximum sirtuin inhibition). A control for activation of sirtuin activity is conducted using 10 nM of sirtuin protein, with 1 μL of DMSO in place of compound, to determine the amount of deacetylation of the substrate at a given timepoint within the linear range of the assay. This timepoint is the same as that used for test compounds and, within the linear range, the endpoint represents a change in velocity.
# For the above assay, SIRT1 protein was expressed and purified as follows. […] The protein was expressed by induction with 1 mM IPTG as an N-terminal His-tag fusion protein at 18° C. overnight and harvested at 30,000×g. Cells were lysed with lysozyme in lysis buffer (50 mM Tris-HCl, 2 mM Tris[2-carboxyethyl]phosphine (TCEP), 10 μM ZnCl2, 200 mM NaCl) and further treated with sonication for 10 min for complete lysis. The protein was purified over a Ni-NTA column (Amersham) and fractions containing pure protein were pooled, concentrated and run over a sizing column (Sephadex S200 26/60 global). The peak containing soluble protein was collected and run on an Ion-exchange column (MonoQ). Gradient elution (200 mM-500 mM NaCl) yielded pure protein. This protein was concentrated and dialyzed against dialysis buffer (20 mM Tris-HCl, 2 mM TCEP) overnight. The protein was aliquoted and frozen at −80° C. until further use.
# Sirtuin modulating compounds that activated SIRT1 were identified using the assay described above and are shown below in Table 1. The EC1.5 values for the activating compounds are represented by A (EC1.5≦1 uM), B (EC1.5>1 and ≦10 uM), or C (EC1.5>10 uM). The percent maximum fold activation is represented by A (Fold activation≧300%), B (Fold Activation≧150% and <300%), or C (Fold Activation<150%).
FOLD ACT. (percent maximum fold activation),EC1.5,Structure (SMILES)
B (Fold Activation≧150% and <300%),A (EC1.5≦1 uM),"COCC#Cc1sc(-c2ccccc2)nc1C(=O)Nc1ccccc1-c1nc2cc(CN3CCCC3)cnc2s1 [Compound 5, 5-(3-methoxyprop-1-ynyl)-2-phenyl-N-(2-(6-(pyrrolidin-1-ylmethyl)thiazolo[5,4-b]pyridin-2-yl)phenyl)thiazole-4-carboxamide]"
B (Fold Activation≧150% and <300%),A (EC1.5≦1 uM),"O=C(Nc1ccccc1-c1nc2cc(CN3CCCC3)cnc2s1)c1nc(-c2ccccc2)cs1 [Compound 22, 4-phenyl-N-(2-(6-(pyrrolidin-1-ylmethyl)thiazolo[5,4-b]pyridin-2-yl)phenyl)thiazole-2-carboxamide]"
B (Fold Activation≧150% and <300%),A (EC1.5≦1 uM),"Cc1oc(-c2ccccc2)nc1C(=O)Nc1ccccc1-c1nc2cc(CN3CCOCC3)cnc2s1 [Compound 16, 5-methyl-N-(2-(6-(morpholinomethyl)thiazolo[5,4-b]pyridin-2-yl)phenyl)-2-phenyloxazole-4-carboxamide]"
A (Fold activation≧300%),A (EC1.5≦1 uM),"O=C(Nc1ccccc1-c1nc2cccnc2s1)c1nc(-c2ccccc2)sc1CCCN1CCCC1 [Compound 8, 2-phenyl-5-(3-(pyrrolidin-1-yl)propyl)-N-(2-(thiazolo[5,4-b]pyridin-2-yl)phenyl)thiazole-4-carboxamide]"
C (Fold Activation<150%),C (EC1.5>10 uM),"COCCN1CCN(Cc2oc(-c3ccccc3)nc2C(=O)Nc2ccccc2-c2nc3cccnc3s2)CC1 [Compound 19, 5-((4-(2-methoxyethyl)piperazin-1-yl)methyl)-2-phenyl-N-(2-(thiazolo[5,4-b]pyridin-2-yl)phenyl)oxazole-4-carboxamide]"
B (Fold Activation≧150% and <300%),A (EC1.5≦1 uM),"O=C(Nc1ccccc1-c1nc2cc(CN3CCCC3)cnc2s1)c1csc(-c2ccccc2)n1 [Compound 3, 2-phenyl-N-(2-(6-(pyrrolidin-1-ylmethyl)thiazolo[5,4-b]pyridin-2-yl)phenyl)thiazole-4-carboxamide]"
A (Fold activation≧300%),A (EC1.5≦1 uM),"O=C(Nc1ccccc1-c1nc2cc(CN3CCOCC3)cnc2s1)c1csc(-c2ccccc2)n1 [Compound 2, N-(2-(6-(morpholinomethyl)thiazolo[5,4-b]pyridin-2-yl)phenyl)-2-phenylthiazole-4-carboxamide]"
A (Fold activation≧300%),A (EC1.5≦1 uM),"COCCN1CCN(Cc2cnc3sc(-c4ccccc4NC(=O)c4csc(-c5ccccc5)n4)nc3c2)CC1 [Compound 1, N-(2-(6-((4-(2-methoxyethyl)piperazin-1-yl)methyl)thiazolo[5,4-b]pyridin-2-yl)phenyl)-2-phenylthiazole-4-carboxamide]"
B (Fold Activation≧150% and <300%),B (EC1.5>1 and ≦10 uM),"COCCCc1sc(-c2ccccc2)nc1C(=O)Nc1ccccc1-c1nc2cccnc2s1 [Compound 6, 5-(3-methoxypropyl)-2-phenyl-N-(2-(thiazolo[5,4-b]pyridin-2-yl)phenyl)thiazole-4-carboxamide]"
B (Fold Activation≧150% and <300%),A (EC1.5≦1 uM),"O=C(Nc1ccccc1-c1nc2cccnc2s1)c1nc(-c2ccccc2)sc1CCCN1CCOCC1 [Compound 13, 5-(3-morpholinopropyl)-2-phenyl-N-(2-(thiazolo[5,4-b]pyridin-2-yl)phenyl)thiazole-4-carboxamide]"
C (Fold Activation<150%),C (EC1.5>10 uM),"O=C(Nc1ccccc1-c1nc2cccnc2s1)c1nc(-c2ccccc2)oc1CN1CCOCC1 [Compound 18, 5-(morpholinomethyl)-2-phenyl-N-(2-(thiazolo[5,4-b]pyridin-2-yl)phenyl)oxazole-4-carboxamide]"
C (Fold Activation<150%),C (EC1.5>10 uM),"CC(C)(C)OC(=O)N1CCN(Cc2oc(-c3ccccc3)nc2C(=O)Nc2ccccc2-c2nc3cccnc3s2)CC1 [Compound 21, tert-butyl 4-((2-phenyl-4-(2-(thiazolo[5,4-b]pyridin-2-yl)phenylcarbamoyl)oxazol-5-yl)methyl)piperazine-1-carboxylate]"
B (Fold Activation≧150% and <300%),A (EC1.5≦1 uM),"COCCN1CCN(Cc2cnc3sc(-c4ccccc4NC(=O)c4nc(-c5ccccc5)oc4C(F)(F)F)nc3c2)CC1 [Compound 14, N-(2-(6-((4-(2-methoxyethyl)piperazin-1-yl)methyl)thiazolo[5,4-b]pyridin-2-yl)phenyl)-2-phenyl-5-(trifluoromethyl)oxazole-4-carboxamide]"
A (Fold activation≧300%),A (EC1.5≦1 uM),"CC(C)N1CCN(Cc2sc(-c3ccccc3)nc2C(=O)Nc2ccccc2-c2nc3cccnc3s2)CC1 [Compound 9, 5-((4-isopropylpiperazin-1-yl)methyl)-2-phenyl-N-(2-(thiazolo[5,4-b]pyridin-2-yl)phenyl)thiazole-4-carboxamide]"
B (Fold Activation≧150% and <300%),A (EC1.5≦1 uM),"COCCN1CCN(CCCc2sc(-c3ccccc3)nc2C(=O)Nc2ccccc2-c2nc3cccnc3s2)CC1 [Compound 7, 5-(3-(4-(2-methoxyethyl)piperazin-1-yl)propyl)-2-phenyl-N-(2-(thiazolo[5,4-b]pyridin-2-yl)phenyl)thiazole-4-carboxamide]"
A (Fold activation≧300%),A (EC1.5≦1 uM),"COCCN1CCN(Cc2cnc3sc(-c4ccccc4NC(=O)c4nc(-c5ccccc5)cs4)nc3c2)CC1 [Compound 23, N-(2-(6-((4-(2-methoxyethyl)piperazin-1-yl)methyl)thiazolo[5,4-b]pyridin-2-yl)phenyl)-4-phenylthiazole-2-carboxamide]"
B (Fold Activation≧150% and <300%),A (EC1.5≦1 uM),"COCCCc1sc(-c2ccccc2)nc1C(=O)Nc1ccccc1-c1nc2cc(CN3CCCC3)cnc2s1 [Compound 4, 5-(3-methoxypropyl)-2-phenyl-N-(2-(6-(pyrrolidin-1-ylmethyl)thiazolo[5,4-b]pyridin-2-yl)phenyl)thiazole-4-carboxamide]"
